Laboratory results as given in ChEMBL document CHEMBL4145667, “Targeting Tumor Associated Carbonic Anhydrases IX and XII: Highly Isozyme Selective Coumarin and Psoralen Inhibitors” (ACS Med Chem Lett, 2018).
pKi: −log10 of the molar value.

Columns and labels:
[1] = molecular target: Carbonic anhydrase 2 (Homo sapiens, UniProt P00918); experiment: Binding affinity to human carbonic anhydrase 2 by stopped flow CO2 hydration method
[2] = molecular target: Carbonic anhydrase 9 (Homo sapiens, UniProt Q16790); experiment: Binding affinity to human carbonic anhydrase 9 by stopped flow CO2 hydration method
[3] = molecular target: Carbonic anhydrase 1 (Homo sapiens, UniProt P00915); experiment: Binding affinity to human carbonic anhydrase 1 by stopped flow CO2 hydration method
[4] = molecular target: Carbonic anhydrase 12 (Homo sapiens, UniProt O43570); experiment: Binding affinity to human carbonic anhydrase 12 by stopped flow CO2 hydration method
Carbonic anhydrase 12, sequence (O43570 whole entry): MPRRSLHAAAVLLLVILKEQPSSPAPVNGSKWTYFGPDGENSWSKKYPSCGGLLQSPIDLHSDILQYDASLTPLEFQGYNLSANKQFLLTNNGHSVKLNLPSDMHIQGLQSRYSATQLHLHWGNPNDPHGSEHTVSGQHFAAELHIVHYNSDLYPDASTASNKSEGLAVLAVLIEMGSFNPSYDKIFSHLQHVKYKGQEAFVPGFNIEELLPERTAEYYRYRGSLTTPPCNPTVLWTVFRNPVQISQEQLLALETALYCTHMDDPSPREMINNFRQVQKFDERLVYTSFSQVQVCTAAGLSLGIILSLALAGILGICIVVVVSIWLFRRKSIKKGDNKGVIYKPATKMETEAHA

Carbonic anhydrase 1, sequence (P00915 whole entry): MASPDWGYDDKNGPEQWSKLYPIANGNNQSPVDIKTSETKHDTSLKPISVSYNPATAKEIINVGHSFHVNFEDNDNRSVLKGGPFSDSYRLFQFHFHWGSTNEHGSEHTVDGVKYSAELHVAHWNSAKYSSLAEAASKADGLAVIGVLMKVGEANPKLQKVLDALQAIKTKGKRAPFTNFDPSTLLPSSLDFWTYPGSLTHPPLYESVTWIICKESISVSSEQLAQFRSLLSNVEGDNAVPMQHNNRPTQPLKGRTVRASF

SMILES: Cc1c(CC(=O)Nc2ccc(S(N)(=O)=O)cc2)c(=O)oc2cc3occ(-c4ccccc4)c3cc12
- pKi [1]: 7.33
- pKi [2]: 7.78
- pKi [3]: 5.15

SMILES: COC(=O)Cc1c(C)c2ccc(OCC(=O)c3ccc(F)cc3)cc2oc1=O
- pKi [1]: < 5.00
- pKi [2]: 7.07
- pKi [3]: < 5.00

SMILES: COC(=O)Cc1c(C)c2ccc(OCC(=O)c3ccccc3)cc2oc1=O
- pKi [1]: < 5.00
- pKi [2]: 7.05
- pKi [3]: < 5.00

SMILES: Cc1ccc(-c2coc3cc4oc(=O)c(CC(=O)O)c(C)c4cc23)cc1
- pKi [1]: < 5.00
- pKi [2]: 7.64
- pKi [3]: < 5.00

SMILES: Cc1c(CC(=O)Nc2ccc(S(N)(=O)=O)cc2)c(=O)oc2cc3occ(-c4ccc(Cl)cc4)c3cc12
- pKi [1]: 7.26
- pKi [2]: 7.75
- pKi [3]: 5.17

SMILES: Cc1c(CC(=O)Nc2ccc(S(N)(=O)=O)cc2)c(=O)oc2cc3occ(-c4ccc(F)cc4)c3cc12
- pKi [1]: 7.10
- pKi [2]: 6.96
- pKi [3]: 5.15

SMILES: COC(=O)Cc1c(C)c2ccc(OCC(=O)c3ccc(Cl)cc3)cc2oc1=O
- pKi [1]: < 5.00
- pKi [2]: 7.63
- pKi [3]: < 5.00

SMILES: COC(=O)Cc1c(C)c2ccc(OCC(=O)c3ccc(C)cc3)cc2oc1=O
- pKi [1]: < 5.00
- pKi [2]: 6.91
- pKi [3]: < 5.00

SMILES: Cc1ccc(-c2coc3cc4oc(=O)c(CC(=O)Nc5ccc(S(N)(=O)=O)cc5)c(C)c4cc23)cc1
- pKi [1]: 6.25
- pKi [2]: 7.04
- pKi [3]: 5.15

SMILES: Cc1c(CC(=O)O)c(=O)oc2cc3occ(-c4ccccc4)c3cc12
- pKi [1]: < 5.00
- pKi [2]: 7.76
- pKi [3]: < 5.00
- pKi [4]: 8.03

SMILES: Cc1c(CC(=O)O)c(=O)oc2cc3occ(-c4ccc(Cl)cc4)c3cc12
- pKi [1]: < 5.00
- pKi [2]: 7.02
- pKi [3]: < 5.00

SMILES: Cc1c(CC(=O)O)c(=O)oc2cc3occ(-c4ccc(F)cc4)c3cc12
- pKi [1]: < 5.00
- pKi [2]: 7.75
- pKi [3]: < 5.00
- pKi [4]: 8.13
